Assay results reported in patent publication US20220030896A2, “CHOLINE ESTER-CONTAINING COMPOSITION FOR ORAL INGESTION” (Shinshu University, priority 2016, published 2022).

How the values were obtained:
[1] = system: spontaneously hypertensive rats (SHR); assay: Repeated oral administration test of AcCh in SHR that did not fast; assay type: in vivo, rat; settings: in SHRs, weight assumed 370 g
Source text: (§1) This AcCh dose at which a blood pressure-lowering effect occurred in SHRs in normal condition upon oral ingestion was extrapolated to humans using Kleiber's law (Non-Patent Document 22). According to Kleiber's law, the mammalian metabolic rate is assumed to be proportional to the ¾ power of body weight, assuming the SHR weight to be 370 g and human weight to be 60 kg, the effective dose for humans is estimated to be 45.4 times the effective dose for SHRs.
(§2) When this AcCh dose was extrapolated to humans using Kleiber's law (Non-Patent Document 22), the upper limit of the daily human effective dose was 3.36×10^−6 mol (491 μg). Therefore, the daily effective dose for humans with high blood pressure having genetic characteristics such as SHRs was estimated to be in the range of 5 to 500 μg.

[2] = Change over time of AcCh amount in aqueous pH solutions (standard sample); assay type: physicochemical; settings: pH 4.1 to pH 3.1, after 12 days
Protocol: A method for stabilizing choline esters in eggplants was examined. […] Therefore, firstly, the concentration change over time of an AcCh standard sample was examined under neutral and acidic conditions. The neutral solution (pH 7.0) was a phosphate buffer solution, and the acidic solutions (pH 4.1, pH 3.6, pH 3.1, pH 2.6) were prepared by adding acetic acid; the pH solutions with an AcCh concentration of 1.9 mg/mL were allowed to remain at ambient temperature (23 to 25° C.) for 0, 3, 6, 12 days, and then the AcCh content was quantified.

humans = assay: Extrapolation of effective AcCh dose from SHR to humans by Kleiber's law; design: species or system human
Source text: as §1, §2

[3] = system: spontaneously hypertensive rats (SHR); assay: Single oral administration test in spontaneously hypertensive rats (tail cuff blood pressure, heart rate); assay type: in vivo, rat; settings: SHRs after 12 hours of fasting
Protocol: The lyophilized eggplant powder was prepared by washing a 'Senshu' water eggplant from […], Osaka-fu with water, by sterilizing the eggplant with hypochlorous acid, and by finely grinding the edible part after lyophilisation. […] In order to compare the blood pressure-lowering effect, an administration test of an AcCh standard sample of 1.00×10^-9 mol/kg was performed in the same manner and the systolic blood pressure was measured. To a control group only water was administered under the same conditions. 0, 3, 6, 9, and 24 hours after the oral administration, systolic blood pressure, diastolic blood pressure and heart rate were measured by the tail cuff method using the non-invasive blood pressure measuring instrument Softron BP-98A (Softron Co., Ltd., Tokyo).

[4] = system: spontaneously hypertensive rats (SHR); settings: purified compound, SHRs, single oral administration; cited from earlier work
[5] = system: thoracic aorta ring specimens of SHR; assay: Vascular isometric tension measurement test (phenylephrine-constricted thoracic aorta rings); design: species or system rat; settings: standard sample
Protocol: The ground eggplant samples used for the experiment were prepared as follows. […] 14-week-old male SHRs (body weight 320 to 346 g) were put to death by laparotomy and exsanguination under ether anaesthesia, and the thoracic aorta was quickly removed. The isolated aorta was immersed in physiological saline and the blood was thoroughly rinsed off, and then the connective tissue and adipose tissue attached to the blood vessel were removed in a Krebs-Henseleit solution to prepare a ring specimen with a width of about 2 to 3 mm. The resulting ring specimens were attached inside an organ bus of an isometric tension test device (UFER UC-05[…]., Kyoto) filled with Krebs-Henseleit solution of 37° C. (119 mM NaCl/4.7 mM KCl/1.1 mM KH2PO4/1.2 mM MgSO4/25 mM NaHCO3, pH 7.4) in which a mixed gas of 95% O2-5% CO2 was aerated, then a static tension of 1.0 g was applied and the ring specimens were stabilized for 60 minutes. […] The change in tension was measured and recorded by using a transducer (UFER UM-20, Iwashiya Kishimoto Ika Sangyo Co., Ltd.), the dilation rate (%) was calculated by equation (1) hereinafter, and the mean value±standard error (Mean±S. E.) was determined by repeating the test results three times. […]

CC(=O)OCC[N+](C)(C)C [AcCh, acetylcholine]
effective daily intake of AcCh causing a blood pressure lowering effect [1]: 3.7e-09 mol | AcCh remaining [2]: ≥ 97% | lower limit of the daily effective dose for humans (humans): 3.36e-08 mol | upper limit of the daily human effective dose (humans): 3.36e-06 mol | effective daily dose of AcCh [3]: 1e-09 mol/kg

CCCC(=O)OCC[N+](C)(C)C [BuCh, butyrylcholine]
blood pressure-lowering effect [4]: blood pressure-lowering effect is shown

O=C(/C=C/c1ccc(O)c(O)c1)O[C@@H]1C[C@](O)(C(=O)O)C[C@@H](O)[C@H]1O [Chlorogenic acid]
effect on blood vessels ([5]; 11 μg/mL): no effect on blood vessels was observed

CCC(=O)OCC[N+](C)(C)C [PrCh, propionylcholine]
blood pressure-lowering effect [4]: blood pressure-lowering effect is shown

NCCCC(=O)O [γ-aminobutyric acid (GABA), γ-aminobutyric acid]
effect on blood vessels ([5]; 4.8 μg/mL): no effect on blood vessels was observed
